According to patent publication US5155110A, “Fenamic acid hydroxamate derivatives having cyclooxygenase and 5-lipoxygenase inhibition” (Warner-Lambert Company, priority 1988, dated 1992):
Like-named read-outs stand apart in the source and are kept apart here.

Experiments:
5-lipoxygenase = molecular target: T1, 5-lipoxygenase (Rattus norvegicus, UniProt P12527); test: ARBL whole cell 5-lipoxygenase assay (LTB4 formation in RBL-1 cells); assay type: cell-based; conditions: RBL-1 whole cells; for IC50: A23187 5 μM, read-out: ARBL IC50 for LTB4 inhibition
T1 construct: host or cells: RBL-1 (rat basophilic leukemia)
T1 sequence (P12527 1-673): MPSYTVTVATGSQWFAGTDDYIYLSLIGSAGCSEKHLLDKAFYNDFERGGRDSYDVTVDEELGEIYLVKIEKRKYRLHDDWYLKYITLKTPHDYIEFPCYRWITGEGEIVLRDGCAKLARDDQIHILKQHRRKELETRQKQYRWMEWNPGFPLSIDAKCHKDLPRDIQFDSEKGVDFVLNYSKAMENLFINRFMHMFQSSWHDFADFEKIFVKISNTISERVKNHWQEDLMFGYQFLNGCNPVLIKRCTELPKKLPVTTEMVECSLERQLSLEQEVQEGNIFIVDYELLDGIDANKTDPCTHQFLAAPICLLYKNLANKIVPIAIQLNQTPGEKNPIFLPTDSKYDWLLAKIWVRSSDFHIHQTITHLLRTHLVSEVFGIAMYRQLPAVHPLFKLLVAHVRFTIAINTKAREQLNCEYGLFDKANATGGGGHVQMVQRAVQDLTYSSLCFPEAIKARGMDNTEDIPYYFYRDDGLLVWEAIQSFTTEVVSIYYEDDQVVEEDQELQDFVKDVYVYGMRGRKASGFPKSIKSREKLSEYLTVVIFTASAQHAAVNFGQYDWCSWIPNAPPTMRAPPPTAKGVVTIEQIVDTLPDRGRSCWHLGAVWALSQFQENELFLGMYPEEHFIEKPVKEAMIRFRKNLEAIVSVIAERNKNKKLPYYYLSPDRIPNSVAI
Experimental: (§1) ARBL/ARBC Whole Cell 5-Lipoxygenase and Cyclooxygenase Assays
(§2) The rat basophilic leukemia cell line (RBL-1) was obtained from the American Type Culture Collection (Rockville, Md.).
(§3) Radioimmuno assay (RIA) kits of LTB4 and PGF2.sbsb.α were obtained from Amersham (Arlington Heiqhts, Ill.) and Seragen (Boston, Mass.) respectively.
(§4) All tissue culture media were obtained from GIBCO (Grand Island, N.Y.).
(§5) RBL-1 cells are grown in suspension culture in Eagle's minimum essential medium supplemented with 12% fetal bovine serum at 37° C. in an incubator supplied with air-5% carbon dioxide. Cells are harvested by centrifugation. They are washed with cold phosphate buffered saline pH 7.4 (PBS; NaCl, […]; Na2 HPO4, 1.15 g; KH2 PO4, 0.2 g; and KCl, 0.2 g/l). Cells are finally suspended in PBS containing 1.0 mM calcium at a density of 2×10^6 cells/ml. Cells are incubated with and without test agent (in DMSO) (1% DMSO is without effect on arachidonic acid metabolism) for ten minutes at room temperature. Calcium ionophore A23187 (5 μM) is added and cells are incubated for seven minutes at 37° C. The reaction is stopped by chilling the tubes on ice for ten minutes. Cells are separated by centrifugation and the supernatant is stored at -20°. Aliquots (100 μl) are analyzed for LTB4 and PGF2.sbsb.α using radioimmuno assay kits as provided by the supplier.

cyclooxygenase = molecular target: T2, cyclooxygenase (Rattus norvegicus, UniProt Q63921); test: ARBC whole cell cyclooxygenase assay (PGF2α formation in RBL-1 cells); assay type: cell-based; conditions: RBL-1 whole cells; for IC50: A23187 5 μM, read-out: ARBC IC50 for PGF2α inhibition
T2 construct: host or cells: RBL-1 (rat basophilic leukemia)
T2 sequence (Q63921 27-602): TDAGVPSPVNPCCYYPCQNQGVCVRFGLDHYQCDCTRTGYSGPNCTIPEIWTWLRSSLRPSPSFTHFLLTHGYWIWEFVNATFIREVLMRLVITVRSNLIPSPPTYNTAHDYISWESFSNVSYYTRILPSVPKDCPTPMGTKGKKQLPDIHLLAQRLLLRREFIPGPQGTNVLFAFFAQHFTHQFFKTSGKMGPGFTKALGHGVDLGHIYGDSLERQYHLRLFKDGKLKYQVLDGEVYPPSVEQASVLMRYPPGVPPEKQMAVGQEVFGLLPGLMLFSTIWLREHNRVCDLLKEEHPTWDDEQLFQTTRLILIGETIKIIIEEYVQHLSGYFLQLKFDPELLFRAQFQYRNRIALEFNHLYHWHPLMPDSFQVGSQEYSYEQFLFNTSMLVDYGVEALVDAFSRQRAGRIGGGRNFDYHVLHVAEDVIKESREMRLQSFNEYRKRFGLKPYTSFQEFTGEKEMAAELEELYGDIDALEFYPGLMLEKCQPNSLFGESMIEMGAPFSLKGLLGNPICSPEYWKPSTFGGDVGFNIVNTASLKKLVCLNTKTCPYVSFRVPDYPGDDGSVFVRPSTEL
Experimental: as §1, §2, §3, §4
as §5, with “Cells are finally suspended in PBS containing 1.0 mM calcium at a density of 2×10^6 cells/ml. Cells are incubated with and without test agent (in DMSO) (1% DMSO is without effect on arachidonic acid metabolism) for ten minutes at room temperature.” left out

[1] = test system: carrageenan-induced rat foot paw edema; test: Carrageenan-Induced Rat Foot Paw Edema (CFE-2); assay type: in vivo; conditions: 5 h, read-out: CFE-2 ID25
Experimental: Carrageenan-Induced Rat Foot Paw Edema2 (CFE2)
Carrageenan solution (1% w/v) is prepared by dissolving 100 mg carrageenan (Marine Colloidal Div., Springfield, N.J.) in 10 ml of sterile saline (0.9%) solution (Travenol). The solution is vortexed for 30 to 45 minutes. Animals are dosed with compound one hour before carrageenan challenge. Foot paw edema is induced by injecting 0.05 ml of the 1% carrageenan subcutaneously into the plantar portion of the right hind paw of each rat under light anesthesia. Initial foot paw volume is measured immediately following carrageenan challenge using mercury plethysmography (Buxco Electronics). Edema is measured five hours after carrageenan. The difference between the five-hour and the initial paw volume is expressed as delta edema. The delta edema for each test group of animals is used to calculate the percent inhibition of edema achieved by the compound at the test dose compared with the vehicle control group. The ID25 (the dose at which swelling is inhibited by 25%) was calculated by probit analysis for the dose at which a result of 25 percent inhibition occurs.

[2] = test system: Mycobacterium-induced rat footpad edema; test: Mycobacterium-Induced Rat Footpad Edema Assay (MFE); assay type: in vivo; conditions: PO, one hour before Mycobacterium and Days 1 and 2, swelling at 72 hours, read-out: MFE ID40
Experimental: Mycobacterium--Induced Rat Footpad Edema Assay (MFE): Protocol
Myobacterium butyricum (5 mg/ml) is suspended in paraffin oil by sonication for ten minutes in an ice bath. Footpad edema is induced on Day 0 by injecting 0.1 ml of the Mycobacterium mixture into the left hindpaw of lightly anesthetized rats. Swelling in the injected hindpaw is determined by mercury plethysmography 72 hours after injection. Groups of rats are treated with test compounds (suspended in 0.5% hydroxypropyl methylcellulose with 0.2% Tween-80) or vehicle one hour before Myobacterium injection and on Days 1 and 2. Inhibition of swelling is determined by comparing the change in hindpaw volume in compound- and vehicle-treated rats. […] (the dose at which swelling is inhibited by 40%) was calculated by probit analysis.

gastric ulcers in rats = test: Gastric Ulcerogenicity (UD); assay type: in vivo, rat; conditions: @ 200 mg/kg PO, fasted male Wistar rats, six hours
Experimental: (§6) Gastric Ulcerogenicity (UD)
(§7) Male outbred Wistar rats (100-250 gms) were fasted for 24 hours. After fasting, test compounds were administered orally (in 2 ml/kg of 0.5% hydroxypropyl methylcellulose) and the rats were denied access to food and water for six more hours. The rats were then sacrificed with CO2 so that the stomachs could be removed, opened along the greater curvature, and evaluated for the presence of gastric ulcers. Results are expressed as the percent of rats with gastric ulcers at a given dose.

[3] = Gastric Ulcerogenicity (UD); assay type: in vivo, rat; conditions: rat, in vivo; fasted male Wistar rats, PO, six hours; read-out: UD50 (dose which produces a 50% occurrence of ulcers in rats)
Experimental: as §6, §7

[4] = rat, PO, dosed one hour before carrageenan, edema at five hours

| Structure (SMILES) | IC50 (5-lipoxygenase) | ED40 [2] | UD: percent of rats with gastric ulcers (gastric ulcers in rats) | also measured |
| --- | --- | --- | --- | --- |
| O=C(NO)c1ccccc1Nc1c(Cl)cccc1Cl [Example 10, 2-[(2,6-dichlorophenyl)amino]-N-hydroxybenzamide] | – | – | – | inhibition at 16 µM (5-lipoxygenase; @ 16 μM): 88%; inhibition at 16 µM (cyclooxygenase; @ 16 μM): 80% |
| Cc1ccc(Cl)c(Nc2ccccc2C(=O)NO)c1Cl [Example 2, 2-[(2,6-dichloro-3-methylphenyl)amino]-N-hydroxybenzamide] | 3.9 µM | 2.5 mg/kg | N (N is 0% of rats have ulcers occurring at 200 mg.) | ED25 [1, 4]: 0.2 mg/kg |
| CONC(=O)c1ccccc1Nc1c(Cl)ccc(C)c1Cl [Example 4, Ortho-2,6-dichloro-3-methylanilinobenzhydroxamic acid O-methyl ether] | 16 µM | – | – | – |
| Cc1ccc(Cl)c(Nc2ccccc2C(=O)N(O)Cc2ccccc2)c1Cl [Example 1, 2-[(2,6-Dichloro-3-methylphenyl)amino]-N-hydroxy-N-phenylmethylbenzamide] | – | 27 mg/kg | N (N is 0% of rats have ulcers occurring at 200 mg.) | – |
| Cc1ccc(Cl)c(Nc2ccccc2C(=O)O)c1Cl [Meclomen, reference compound] | 24 µM | 0.39 mg/kg | – | ED25 ([1]; Rattus norvegicus, po): 8.2 mg/kg; TD50 at 6 h [3]: 36 mg/kg |
| Cc1cccc(Nc2ccccc2C(=O)NO)c1C [Example 9, 2-[(2,3-dimethylphenyl)amino]-N-hydroxybenzamide] | 1.8 µM | – | – | inhibition at 0.5 µM (cyclooxygenase; @ 0.5 μM): 60% |

Second part, led by results:

| IC50 (5-lipoxygenase) | Structure (SMILES) | ED40 [2] | UD: percent of rats with gastric ulcers (gastric ulcers in rats) | also measured |
| --- | --- | --- | --- | --- |
| 1.5 µM | Cc1ccc(Cl)c(Nc2ccccc2C(=O)N(C)O)c1Cl [Example 3, 2-[(2,6-dichloro-3-methylphenyl)amino]-N-hydroxy-N-methylbenzamide] | 24 mg/kg | N (N is 0% of rats have ulcers occurring at 200 mg.) | ED25 [1, 4]: 1.3 mg/kg |
| 3.2 µM | Cc1ccc(Cl)c(N2CN(O)C(=O)c3ccccc32)c1Cl [Example 35, 1-(2,6-dichloro-3-methylphenyl)-2,3-dihydro-3-hydroxy-4(1H)-quinazolinone] | – | – | IC50 (cyclooxygenase): 2.2 µM |
| 6.5 µM | Cc1ccc(Cl)c(N2C(=O)C(=NO)c3ccccc32)c1Cl [Example 49, 1-(2,6-Dichloro-3-methylphenyl)-lH-indole-2,3-dione-3-oxime] | – | – | IC50 (cyclooxygenase): 28 µM |
